Measurements from patent US7615231B2, “Methods for enhancing the morphology, tone, texture and/or appearance of skin or hair using a meadowlactone” (Fan Tech, Ltd., priority 2005, dated 2009).

Experiments:
[1] = Solubility of the Meadowlactone as a function of pH in aqueous systems; type: physicochemical
Protocol: Solubility of the Meadowlactone as a function of pH was determined in aqueous systems.
In these experiments, 2 weight percent of Meadowlactone was mixed with water at room temperature. The pH of this mixture was varied, starting at an acidic pH and terminating at an alkaline pH. The clarity of the mixture was observed, and the mixture was photographed, at different pH levels (varying by one pH unit at a time).

skin = experiment: Initial use trials of skin creams containing the Meadowlactone; type: in vivo
[2] = Analytical results on purified Meadowlactone (stability); type: physicochemical
Text: The purified Meadowlactone was identified and subsequently quantified by infrared spectroscopy and HPLC coupled with an evaporative light-scattering detector.

CCCCCCCCCCCCCCCC1CCCC(=O)O1 (stereo not shown) [Meadowlactone, Meadowfoam Delta Lactone]
oil / water solubility of the isomeric structures ([1]; 2 weight percent in water at room temperature, pH varied from acidic to alkaline, clarity observed): oil soluble | forms present at the pH reported for human skin ([1]; pH from about 4.5 to about 5.5): both the Meadowlactone and the 5-hydroxy fatty acid exist together in equilibrium | skin moisturization (skin): very effective | stability [2]: extended stability
